Key:
Type in all cases: in vivo
[1] = test system: blackgrass (Alopecurus myosuroides); test: Test B postemergence plant response
Outline: (§1)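 Visual injury rating, 0–100 (0 = no effect, 100 = complete control), vs untreated controls ~10 days after postemergence spray; greenhouse; potted loam soil/sand; plants 2–10 cm, 1–2 leaf stage.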

[2] = test system: galium (catchweed bedstraw, Galium aparine); test: Test B postemergence plant response
Outline: as §1

[3] = test system: Italian ryegrass (Lolium multiflorum); test: Test D pre-/postemergence plant response
Outline: (§2)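 0 = no effect, 100 = complete control: plants were scored this way by visual comparison with controls 13 to 15 days post-treatment. Application was preemergence to sown loam/sand pots or postemergence to 2–18 cm seedlings in peat-based mix.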

[4] = test system: barnyardgrass (Echinochloa crus-galli); test: Test D pre-/postemergence plant response
Outline: as §2

corn (Zea mays) = test: Test D pre-/postemergence plant response
Outline: as §2

[5] = test system: giant foxtail (Setaria faberii); test: Test D pre-/postemergence plant response
Outline: as §2

[6] = test system: morningglory (Ipomoea coccinea); test: Test D pre-/postemergence plant response
Outline: as §2

[7] = test system: oilseed rape (Brassica napus); test: Test D pre-/postemergence plant response
Outline: as §2

[8] = test system: pigweed (Amaranthus retroflexus); test: Test D pre-/postemergence plant response
Outline: as §2

[9] = test system: ragweed (common ragweed, Ambrosia elatior); test: Test D pre-/postemergence plant response
Outline: as §2

soybean (Glycine max) = test: Test D pre-/postemergence plant response
Outline: as §2

[10] = test system: waterhemp (common waterhemp, Amaranthus rudis); test: Test D pre-/postemergence plant response
Outline: as §2

[11] = test system: yellow nutsedge (Cyperus esculentus); test: Test D pre-/postemergence plant response; settings: Preemergence; for Plant response rating, Nutsedge, Yellow: scale 0 to 100 (0 no effect, 100 complete control)
Outline: as §2

[12] = test system: chickweed (common chickweed, Stellaria media); test: Test D postemergence plant response; settings: for Chickweed plant response rating: scale 0 to 100 (0 no effect, 100 complete control); for Plant response rating, Chickweed: scale 0 to 100, 0 no effect, 100 complete control
Outline: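 Visual 0–100 rating vs controls (0 = no effect, 100 = complete control), scored 13–15 d after postemergence spray. Plants 1- to 4-leaf stage (2–18 cm), potted in peat/vermiculite mix, kept in greenhouse.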

[13] = 125 g ai/ha, postemergence, 0 to 100 scale, 0 no effect, 100 complete control
[14] = Postemergence, 500 g ai/ha, 0 to 100 scale (0 no effect, 100 complete control)
[15] = Postemergence, 16 g ai/ha, scale 0 to 100 (0 no effect, 100 complete control)
[16] = Postemergence, 31 g ai/ha, scale 0 to 100 (0 no effect, 100 complete control)
[17] = Postemergence, 62 g ai/ha, scale 0 to 100, 0 no effect, 100 complete control
[18] = Postemergence, 125 g ai/ha, scale 0 to 100, 0 no effect, 100 complete control
[19] = Preemergence, 16 g ai/ha, scale 0 to 100 (0 no effect, 100 complete control)
[20] = Preemergence, 31 g ai/ha, scale 0 to 100 (0 no effect, 100 complete control)
[21] = Preemergence, 62 g ai/ha, scale 0 to 100 (0 no effect, 100 complete control)

FC(F)(F)c1cc(-c2ccccc2Oc2ncc(Cl)cn2)ncn1 [Compound 54]
50: Plant response rating, Foxtail, Giant [5, 18] | Plant response rating, Oilseed Rape [7, 17] | Plant response rating, Soybean (soybean (Glycine max); [17])
75: Morningglory plant response rating [6, 16] | Plant response rating, Morningglory [6, 17] | Plant response rating, Waterhemp [10, 18]
85: Plant response rating, Morningglory [6, 18] | Plant response rating, Oilseed Rape [7, 20] | Plant response rating, Waterhemp [10, 20]
95: Plant response rating (scale 0 to 100), Barnyardgrass ([4]; Preemergence, 125 g ai/ha) | Plant response rating (scale 0 to 100), Foxtail, Giant ([5]; Preemergence, 125 g ai/ha) | Plant response rating, Foxtail, Giant [5, 21]
60: Plant response rating, Oilseed Rape [7, 18] | Plant response rating, Oilseed Rape [7, 19] | Pigweed plant response rating [8, 15] | Plant response rating, Pigweed [8, 18] | Waterhemp plant response rating [10, 16]
15: Plant response rating (scale 0 to 100), Morningglory ([6]; Preemergence, 125 g ai/ha) | Soybean plant response rating (soybean (Glycine max); [15]) | Plant response rating (scale 0 to 100), Nutsedge, Yellow ([11]; 125 g ai/ha)
100: Plant response rating, Galium [2, 13] | Plant response rating, Galium [2, 14] | Plant response rating (scale 0 to 100), Oilseed Rape ([7]; Preemergence, 125 g ai/ha) | Plant response rating, Oilseed Rape [7, 21] | Plant response rating (scale 0 to 100), Pigweed ([8]; Preemergence, 125 g ai/ha) | Plant response rating, Pigweed [8, 20] | Plant response rating, Pigweed [8, 21] | Plant response rating (scale 0 to 100), Waterhemp ([10]; Preemergence, 125 g ai/ha) | Plant response rating, Waterhemp [10, 21]
25: Plant response rating, Waterhemp [10, 19]
20: Oilseed Rape plant response rating [7, 16] | Plant response rating (scale 0 to 100), Soybean (soybean (Glycine max); Preemergence, 125 g ai/ha) | Plant response rating, Soybean (soybean (Glycine max); [21])
10: Plant response rating, Barnyardgrass [4, 18] | Plant response rating (scale 0 to 100), Barnyardgrass ([4]; Preemergence, 62 g ai/ha) | Plant response rating, Foxtail, Giant [5, 17] | Plant response rating, Foxtail, Giant [5, 20] | Plant response rating, Ragweed [9, 19] | Plant response rating, Ragweed [9, 21] | Soybean plant response rating (soybean (Glycine max); [16]) | Plant response rating, Soybean (soybean (Glycine max); [20])
45: Waterhemp plant response rating [10, 15]
70: Plant response rating, Blackgrass [1, 13]
80: Plant response rating, Blackgrass [1, 14] | Pigweed plant response rating [8, 16] | Plant response rating, Pigweed [8, 17] | Plant response rating, Soybean (soybean (Glycine max); [18]) | Plant response rating, Waterhemp [10, 17]
5: Plant response rating, Ryegrass, Italian [3, 20] | Plant response rating, Ryegrass, Italian [3, 21] | Barnyardgrass plant response rating [4, 16] | Plant response rating, Barnyardgrass [4, 17] | Plant response rating, Barnyardgrass [4, 20] | Plant response rating, Corn (corn (Zea mays); [17]) | Plant response rating, Corn (corn (Zea mays); [18]) | Morningglory plant response rating [6, 15] | Plant response rating, Morningglory [6, 21] | Oilseed Rape plant response rating [7, 15] | Plant response rating, Pigweed [8, 19] | Plant response rating, Ragweed [9, 17] | Chickweed plant response rating ([12]; 16 g ai/ha) | Chickweed plant response rating ([12]; 31 g ai/ha) | Plant response rating, Chickweed ([12]; 62 g ai/ha) | Plant response rating, Chickweed ([12]; 125 g ai/ha)
40: Plant response rating, Ragweed [9, 20]
30: Plant response rating (scale 0 to 100), Ryegrass, Italian ([3]; Preemergence, 125 g ai/ha) | Foxtail, Giant plant response rating [5, 16]
35: Plant response rating, Ragweed [9, 18] | Plant response rating (scale 0 to 100), Ragweed ([9]; Preemergence, 125 g ai/ha)
0: Ryegrass, Italian plant response rating [3, 15] | Ryegrass, Italian plant response rating [3, 16] | Plant response rating, Ryegrass, Italian [3, 17] | Plant response rating, Ryegrass, Italian [3, 18] | Plant response rating, Ryegrass, Italian [3, 19] | Barnyardgrass plant response rating [4, 15] | Plant response rating, Barnyardgrass [4, 19] | Corn plant response rating (corn (Zea mays); [15]) | Corn plant response rating (corn (Zea mays); [16]) | Plant response rating (scale 0 to 100), Corn (corn (Zea mays); Preemergence, 125 g ai/ha) | Plant response rating, Corn (corn (Zea mays); [19]) | Plant response rating, Corn (corn (Zea mays); [20]) | Plant response rating, Corn (corn (Zea mays); [21]) | Foxtail, Giant plant response rating [5, 15] | Plant response rating, Foxtail, Giant [5, 19] | Plant response rating, Morningglory [6, 19] | Plant response rating, Morningglory [6, 20] | Ragweed plant response rating [9, 15] | Ragweed plant response rating [9, 16] | Plant response rating, Soybean (soybean (Glycine max); [19]) | Plant response rating, Nutsedge, Yellow ([11]; 16 g ai/ha) | Plant response rating, Nutsedge, Yellow ([11]; 31 g ai/ha) | Plant response rating, Nutsedge, Yellow ([11]; 62 g ai/ha)

Source: patent US10131652B2, “Pyrimidinyloxy benzene derivatives as herbicides” (E. I. DU PONT DE NEMOURS AND COMPANY, priority 2014, dated 2018)
